# Measurements taken from US20220025336A1, “METHOD FOR PRODUCING INSULIN-PRODUCING CELLS, AND COMPOSITION” (KATAOKA CORPORATION, priority 2018, published 2022).
# Legend:
# [1] = test system: human fibroblasts; assay: Direct induction from human fibroblasts into insulin-producing cells; amount of insulin secreted; type: cell-based
# Description: (§1) The insulin-producing cell produced by the present invention process can be detected, identified, and isolated using, for example, a morphological change of a cell, a characteristic property of an insulin-producing cell, or a specific marker (e.g., an anti-insulin antibody). Moreover, the secretory capacity of the obtained insulin-producing cell can also be evaluated by quantifying the amount of secreted insulin using sandwich ELISA.
# The human fibroblasts used as the material were purchased from DS Pharma Biomedical Co., Ltd. The fibroblasts are derived from human skin.
# Human fibroblasts were seeded in 35-mm dishes coated with gelatin (Cat#: 190-15805, manufactured by Wako Pure Chemical Industries, Ltd.) at 5×10^4 cells/dish, and cultured in DMEM medium (manufactured by Gibco) supplemented with 10% fetal bovine serum (FBS), 100 U/mL penicillin, and 100 μg/mL streptomycin until confluent under conditions of 37° C. and 5% CO2. Note that DMEM refers to Dulbecco's Modified Eagle's Medium.
# The medium of dishes of the human fibroblasts described above was replaced with the differentiation induction medium described below.
# Differentiation induction medium: Advanced DMEM/F-12 (Cat#: 12634010; manufactured by Gibco) supplemented with ITS-X (Cat#: 51500056, manufactured by Gibco), non-essential amino acids (NEAA; Cat#: 11140050, manufactured by Gibco), Glutamine (manufactured by Gibco; final concentration: 2 mmol/L), Nicotinamide (Cat#: 72340-10OG, manufactured by Sigma-Aldrich; final concentration: 10 mmol/L), Exendin-4 (Cat#: av120214, manufactured by Abcam; final concentration: 100 ng/mL), 100 U/mL penicillin, 100 μg/mL streptomycin, insulin, and low molecular weight compounds described below, with or without addition of 10% fetal bovine serum (FBS, manufactured by Hyclone).
# Subsequently, the cells were cultured under conditions of 37° C. and 5% CO2 while the medium was changed to the medium of the same composition every three days. […]
# [2] = test system: human adipose tissue-derived mesenchymal stem cells (AdMSC); assay: Direct induction from human adipose tissue-derived mesenchymal stem cells (AdMSC) into insulin-producing cells; amount of insulin secreted; type: cell-based; conditions: FIG. 5; 120 μg/mL insulin; cultured 14 days
# Description: as §1
# Human mesenchymal stem cells isolated from adipose tissue were purchased from Takara Bio Co., Ltd.
# Human mesenchymal stem cells were seeded in 35-mm dishes coated with gelatin (Cat#: 190-15805, manufactured by Wako Pure Chemical Industries, Ltd.) at 5×10^4 cells/dish, and cultured in Mesenchymal Stem Cell Growth Medium 2 (Cat#: C-28009; manufactured by Takara Bio Co., Ltd.) supplemented with 100 U/mL penicillin and 100 μg/mL streptomycin until the cells were almost confluent under conditions of 37° C. and 5% CO2.
# The medium of dishes of the human mesenchymal stem cells described above was replaced with the differentiation induction medium described below. […]
Compound,"insulin secretion / secretory capacity of induced cells by combination of low molecular weight compounds ([1]; FIG. 4, 3C (CHIR99021, BRD7389, forskolin) without BRD7389, or with BI-D1870 5 μM or 10 μM instead of BRD7389, no LY294002, 14 days)",amount of insulin secreted with a high concentration of insulin in the differentiation induction medium [2],"increase of the amount of insulin secretion by induction with a high concentration of insulin ([1]; FIG. 2, 120 μg/mL vs 20 μg/mL insulin in differentiation induction medium, cultured 14 days)","amount of insulin secreted as a function of insulin concentration in the differentiation induction medium ([1]; FIG. 3, insulin up to 100 μg/mL, cultured 14 days)"
"CC(C)CCN1c2nc(Nc3cc(F)c(O)c(F)c3)ncc2N(C)C(=O)C1C (stereo not shown) [BI-D1870, reference compound]",insulin-producing cells with a higher secretory capacity were also obtained,,,
insulin: Human recombinant insulin (Cat#: 093-06351; Wako) added to the differentiation induction medium,,increased markedly,about 3 times,the greater was the amount of insulin secreted
